In assay [1] the test system is gastric cancer cell line Hs746T. As to the kind of experiment: Cancer cell proliferation inhibitory activity evaluation 2 (CCK-8), Hs746T. It is filed as cell-based. As to conditions: Homo sapiens. As to the method:
(§1) In order to identify whether the compounds have anticancer activity, the acute myeloid leukemia cell line U937, the acute lymphoblastic leukemia cell line Jurkat, the gastric cancer cell lines AGS, […], and the human lung cancer cell line A549 were used. The cell line was cultured using RPMI-1640 medium (U937, Jurkat, AGS, A549) or DMEM (Hs746T) medium containing 10% fetal bovine serum. Welgene products were used as the medium, and hyclone products were used for fetal bovine serum, and 1% of antibiotics for cell culture from Gibco were used as the culture medium.

Another assay deals with MLK3 (Homo sapiens (Human), UniProt Q16584). As to the kind of experiment: Evaluation of inhibitory activity of enzyme units, MLK3 ([γ-33P]-ATP filter assay). As to conditions: read-out: IC50(nM) MLK3.
MLK3, sequence (Q16584 whole entry, looked up): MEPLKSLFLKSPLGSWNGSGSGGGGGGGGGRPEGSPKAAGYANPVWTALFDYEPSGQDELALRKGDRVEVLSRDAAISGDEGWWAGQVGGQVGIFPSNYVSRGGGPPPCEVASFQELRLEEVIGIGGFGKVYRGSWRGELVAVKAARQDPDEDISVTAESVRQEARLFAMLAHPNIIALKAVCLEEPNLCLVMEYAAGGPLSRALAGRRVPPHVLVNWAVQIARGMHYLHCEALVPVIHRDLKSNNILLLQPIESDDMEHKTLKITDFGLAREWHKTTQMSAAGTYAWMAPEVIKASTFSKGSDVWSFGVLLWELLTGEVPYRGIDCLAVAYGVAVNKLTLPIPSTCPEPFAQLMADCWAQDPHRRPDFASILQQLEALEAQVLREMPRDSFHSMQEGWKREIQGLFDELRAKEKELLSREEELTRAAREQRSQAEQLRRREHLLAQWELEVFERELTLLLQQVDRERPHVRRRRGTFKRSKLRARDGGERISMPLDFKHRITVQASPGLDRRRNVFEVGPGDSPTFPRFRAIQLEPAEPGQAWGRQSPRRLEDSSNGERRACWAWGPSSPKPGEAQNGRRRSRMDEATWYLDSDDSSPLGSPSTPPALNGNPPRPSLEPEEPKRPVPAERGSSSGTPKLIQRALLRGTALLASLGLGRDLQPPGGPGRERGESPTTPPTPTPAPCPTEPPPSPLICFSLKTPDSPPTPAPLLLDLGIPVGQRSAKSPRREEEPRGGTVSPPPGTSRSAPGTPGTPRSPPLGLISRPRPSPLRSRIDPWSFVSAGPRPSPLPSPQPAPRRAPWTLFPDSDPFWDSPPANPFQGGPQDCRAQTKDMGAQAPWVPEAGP
In assay [2] the test system is acute myeloid leukemia cell line U937. As to the kind of experiment: Cancer cell proliferation inhibitory activity evaluation 2 (CCK-8), U937. The format is cell-based. As to conditions: Homo sapiens, read-out: Cancer cell proliferation inhibitory activity U937. As to the method:
as §1

Assay [3] deals with human lung cancer cell line A549. As to the kind of experiment: Cancer cell proliferation inhibitory activity evaluation 2 (CCK-8), A549. The format is cell-based. How it is done: as §1
In assay [4] the test system is acute lymphoblastic leukemia cell line Jurkat. As to the kind of experiment: Cancer cell proliferation inhibitory activity evaluation 2 (CCK-8), Jurkat. It is filed as cell-based. As to conditions: Homo sapiens. How it is done: as §1
Assay [5] deals with gastric cancer cell line AGS. As to the kind of experiment: Cancer cell proliferation inhibitory activity evaluation 2 (CCK-8), AGS. As to conditions: Homo sapiens, read-out: Cancer cell proliferation inhibitory activity AGS. It is filed as cell-based. As to the method: as §1
Another assay has as its target MLK1 (Homo sapiens (Human), UniProt P80192). As to the kind of experiment: Evaluation of inhibitory activity of enzyme units, MLK1 ([γ-33P]-ATP filter assay). The format is biochemical.
[6] abbreviates: 72 h, read-out: Cancer cell proliferation inhibitory activity Hs746T.
Where [7] appears, read: A549, 72 h, read-out: Cancer cell proliferation inhibitory activity A549.
[8] abbreviates: 72 h, read-out: Cancer cell proliferation inhibitory activity Jurkat.
Setting [9] is: U-937, 10 μM, 72 hours, CCK-8 (Table 3).
Where [10] appears, read: 10 μM, 72 hours, CCK-8, read-out: Cancer cell proliferation inhibitory activity Jurkat.
Setting [11] is: 10 μM, 72 hours, CCK-8, read-out: Cancer cell proliferation inhibitory activity Hs746T.
[12] abbreviates: A549, 10 μM, 72 hours, CCK-8, read-out: Cancer cell proliferation inhibitory activity A549.

Where two headings read alike, the source gives them in different places.

MLK1, sequence (P80192 whole entry, looked up): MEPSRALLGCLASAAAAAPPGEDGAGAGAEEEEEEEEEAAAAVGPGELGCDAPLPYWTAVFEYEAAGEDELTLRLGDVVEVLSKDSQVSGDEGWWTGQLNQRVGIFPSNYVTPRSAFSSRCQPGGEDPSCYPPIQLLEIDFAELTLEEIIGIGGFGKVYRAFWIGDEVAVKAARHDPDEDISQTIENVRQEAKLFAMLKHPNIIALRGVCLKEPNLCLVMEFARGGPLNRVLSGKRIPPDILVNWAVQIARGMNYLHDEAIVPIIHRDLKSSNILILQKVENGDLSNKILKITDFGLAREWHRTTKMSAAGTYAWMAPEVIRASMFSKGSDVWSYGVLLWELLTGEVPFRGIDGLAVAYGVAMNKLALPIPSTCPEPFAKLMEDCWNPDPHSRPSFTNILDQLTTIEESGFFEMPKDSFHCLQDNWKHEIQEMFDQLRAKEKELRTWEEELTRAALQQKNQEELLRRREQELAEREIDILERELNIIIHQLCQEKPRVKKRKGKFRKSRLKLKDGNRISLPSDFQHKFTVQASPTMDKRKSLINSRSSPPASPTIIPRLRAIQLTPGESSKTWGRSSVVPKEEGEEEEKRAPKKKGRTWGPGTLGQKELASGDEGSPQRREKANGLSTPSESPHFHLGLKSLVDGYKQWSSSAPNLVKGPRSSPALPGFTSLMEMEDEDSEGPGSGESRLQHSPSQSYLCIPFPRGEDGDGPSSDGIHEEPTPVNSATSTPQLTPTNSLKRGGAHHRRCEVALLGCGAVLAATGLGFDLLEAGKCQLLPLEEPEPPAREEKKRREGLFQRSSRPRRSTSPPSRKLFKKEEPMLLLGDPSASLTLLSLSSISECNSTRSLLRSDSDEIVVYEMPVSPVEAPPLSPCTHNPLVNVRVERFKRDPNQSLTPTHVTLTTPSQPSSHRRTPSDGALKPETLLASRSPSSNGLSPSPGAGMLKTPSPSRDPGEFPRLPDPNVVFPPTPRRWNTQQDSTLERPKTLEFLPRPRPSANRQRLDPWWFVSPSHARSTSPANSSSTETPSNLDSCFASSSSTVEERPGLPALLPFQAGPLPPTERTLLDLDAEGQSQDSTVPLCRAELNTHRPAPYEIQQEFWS

A word on the IC50: it is the concentration needed to halve the response being measured. For `CCS(=O)(=O)N1CC[C@H](Nc2c(Br)cnc3[nH]c(-c4cc(C)n(-c5ccc(NS(C)(=O)=O)cc5C)c4C)nc23)C1` [Example 8, N-(4-(3-(6-bromo-7-(((S)-1-(ethylsulfonyl)pyrrolidine-3-yl)amino)-3H-imidazo[4,5-b]pyridine-2-yl)-2,5-dimethyl-1H-pyrrol-1-yl)-3-methylphenyl) methanesulfonamide], the inhibition at 10 µM is greater than 50% in assay [1] (setting [6]); greater than 50% in assay [2] (U-937, 72 h); greater than 50% in assay [3] (setting [7]); greater than 50% in assay [4] (setting [8]); greater than 50% in assay [5] (72 h). Also, the IC50 on MLK3 is 7 nM.

With `CCS(=O)(=O)N1CC[C@H](Nc2c(Br)cnc3[nH]c(-c4cc(C)n(-c5cccc(NS(C)(=O)=O)c5C)c4C)nc23)C1` [Example 9, N-(3-(3-(6-bromo-7-(((S)-1-(ethylsulfonyl)pyrrolidine-3-yl)amino)-3H-imidazo[4,5-b]pyridine-2-yl)-2,5-dimethyl-1H-pyrrol-1-yl)-2-methylphenyl) methanesulfonamide], the inhibition at 10 µM in assay [1] (setting [6]) was greater than 50%; in assay [2] (U-937, 72 h), greater than 50%; in assay [3] (setting [7]), greater than 50%; in assay [4] (setting [8]), greater than 50%; in assay [5] (72 h), greater than 50%. Further, the IC50 on MLK3 was 10 nM.

For the compound `CCS(=O)(=O)N1CC[C@H](Nc2c(Br)cnc3[nH]c(-c4cc(C)n(-c5ccc(S(=O)(=O)N6CCOCC6)cc5)c4C)nc23)C1` [Example 10, (S)-6-bromo-2-(2,5-dimethyl-1-(4-(morpholinosulfonyl)phenyl)-1H-pyrrol-3-yl)-N-(1-(ethylsulfonyl)pyrrolidine-3-yl)-3H-imidazo[4,5-b]pyridine-7-amine], on MLK3, the IC50 turned out to be 7 nM. Further, the inhibition at 10 µM in assay [2] (setting [9]) was 10 to 50%; in assay [4] (setting [10]), greater than 50%; in assay [5] (10 μM, 72 hours, CCK-8) it was 10 to 50%.

On to `Cc1cc(-c2nc3c(Nc4cccc(S(N)(=O)=O)c4)c(Br)cnc3[nH]2)c(C)n1-c1cccc(C(=O)N2CCOCC2)c1` [Example 28, 3-((6-bromo-2-(2,5-dimethyl-1-(3-(morpholine-4-carbonyl)phenyl)-1H-pyrrol-3-yl)-3H-imidazo[4,5-b]pyridine-7-yl)amino)benzenesulfonamide], for which the IC50 at MLK3 turned out to be 57 nM. For the same compound, the inhibition at 10 µM was less than 10% in assay [2] (setting [9]); 10 to 50% in assay [4] (setting [10]); 10 to 50% in assay [5] (10 μM, 72 hours, CCK-8).

As to `Cc1cc(-c2nc3c(Nc4cccc(S(N)(=O)=O)c4)c(Br)cnc3[nH]2)c(C)n1-c1ccc(S(=O)(=O)N2CCOCC2)cc1` [Example 29, 3-((6-bromo-2-(2,5-dimethyl-1-(4-(morpholinosulfonyl)phenyl)-1H-pyrrol-3-yl)-3H-imidazo[4,5-b]pyridine-7-yl)amino)benzenesulfonamide], at MLK3, the half-inhibitory concentration (IC50) worked out at 25 nM. The inhibition at 10 µM was less than 10% in assay [2] (setting [9]); 10 to 50% in assay [4] (setting [10]); 10 to 50% in assay [5] (10 μM, 72 hours, CCK-8).

Turning to `Cc1cc(-c2nc3c(Nc4cccc(S(N)(=O)=O)c4)c(Br)cnc3[nH]2)c(C)n1-c1cccc(S(=O)(=O)N2CCOCC2)c1` [Example 30, 3-((6-bromo-2-(2,5-dimethyl-1-(3-(morpholinosulfonyl)phenyl)-1H-pyrrol-3-yl)-3H-imidazo[4,5-b]pyridine-7-yl)amino)benzenesulfonamide], the inhibition at 10 µM in assay [2] (setting [9]) was less than 10%; in assay [4] (setting [10]) it was 10 to 50%; in assay [5] (10 μM, 72 hours, CCK-8), 10 to 50%.

On to `Cc1cc(NS(C)(=O)=O)ccc1-n1c(C)cc(-c2nc3c(Nc4cccc(S(N)(=O)=O)c4)c(Br)cnc3[nH]2)c1C` [Example 32, 3-((6-bromo-2-(2,5-dimethyl-1-(2-methyl-4-(methylsulfonamido)phenyl)-1H-pyrrol-3-yl)-3H-imidazo[4,5-b]pyridine-7-yl)amino)benzenesulfonamide], for which the IC50 on MLK3 was 32 nM. In addition, the inhibition at 10 µM in assay [2] (setting [9]) is 10 to 50%; in assay [4] (setting [10]) it was 10 to 50%; in assay [5] (10 μM, 72 hours, CCK-8) it was 10 to 50%.

Turning to `Cc1c(NS(C)(=O)=O)cccc1-n1c(C)cc(-c2nc3c(Nc4cccc(S(N)(=O)=O)c4)c(Br)cnc3[nH]2)c1C` [Example 34, 3-((6-bromo-2-(2,5-dimethyl-1-(2-methyl-3-(methylsulfonamido)phenyl)-1H-pyrrol-3-yl)-3H-imidazo[4,5-b]pyridine-7-yl)amino)benzenesulfonamide], the IC50 at MLK3 was 41 nM. Besides, the inhibition at 10 µM lay in the range of 10 to 50% in assay [2] (setting [9]); 10 to 50% in assay [4] (setting [10]); 10 to 50% in assay [5] (10 μM, 72 hours, CCK-8).

`Cc1cc(-c2nc3c(Nc4cccc(S(N)(=O)=O)c4)c(Br)cnc3[nH]2)c(C)n1-c1ccc2c(c1)OCO2` [Example 41, 3-((2-(1-(benzo[d][1,3]dioxole-5-yl)-2,5-dimethyl-1H-pyrrol-3-yl)-6-bromo-3H-imidazo[4,5-b]pyridine-7-yl)amino)benzenesulfonamide]: the IC50 on MLK3 amounted to 70 nM. Further, the inhibition at 10 µM is 10 to 50% in assay [2] (setting [9]); 10 to 50% in assay [4] (setting [10]); 10 to 50% in assay [5] (10 μM, 72 hours, CCK-8).

Turning to `COCCOc1cccc(-n2c(C)cc(-c3nc4ncc(Br)c(Nc5cccc(S(N)(=O)=O)c5)c4[nH]3)c2C)c1` [Example 42, 3-((6-bromo-2-(1-(3-(2-methoxyethoxy)phenyl)-2,5-dimethyl-1H-pyrrol-3-yl)-1H-imidazo[4,5-b]pyridine-7-yl)amino)benzenesulfonamide], the IC50 on MLK3 came out at 83 nM. Besides, the inhibition at 10 µM in assay [2] (setting [9]) is 10 to 50%; in assay [4] (setting [10]), greater than 50%; in assay [5] (10 μM, 72 hours, CCK-8) it was greater than 50%.

For the compound `Cc1cc(-c2nc3ncc(Br)c(Nc4cccc(S(N)(=O)=O)c4)c3[nH]2)c(C)n1-c1ccccc1` [Example 43, 3-((6-bromo-2-(2,5-dimethyl-1-phenyl-1H-pyrrol-3-yl)-1H-imidazo[4,5-b]pyridine-7-yl)amino)benzenesulfonamide], the IC50 on MLK3 stood at 85 nM. Besides, the inhibition at 10 µM in assay [2] (setting [9]) was 10 to 50%; in assay [4] (setting [10]), greater than 50%; in assay [5] (10 μM, 72 hours, CCK-8) it was 10 to 50%.

Consider `COCCOc1ccc(Nc2c(Br)cnc3[nH]c(-c4cc(C)n(-c5cccc(S(N)(=O)=O)c5)c4C)nc23)cc1` [Example 46, 3-(3-(6-bromo-7-((4-(2-methoxyethoxy)phenyl)amino)-3H-imidazo[4,5-b]pyridine-2-yl)-2,5-dimethyl-1H-pyrrol-1-yl)benzenesulfonamide], for which the inhibition at 10 µM in assay [2] (setting [9]) is 10 to 50%; in assay [4] (setting [10]), greater than 50%; in assay [5] (10 μM, 72 hours, CCK-8) it was 10 to 50%.

Consider `CCS(=O)(=O)N1CC[C@H](Nc2c(Br)cnc3[nH]c(-c4cc(C)n(-c5ccc6c(c5)OCO6)c4C)nc23)C1` [Example 49, (S)-2-(1-(benzo[d][1,3]dioxole-5-yl)-2,5-dimethyl-1H-pyrrol-3-yl)-6-bromo-N-(1-(ethylsulfonyl)pyrrolidine-3-yl)-3H-imidazo[4,5-b]pyridine-7-amine], for which the figures for the IC50 on MLK3 and at MLK1 were 15 nM and 50 nM, respectively.

Take `CCS(=O)(=O)N1CC[C@H](Nc2ccnc3[nH]c(-c4cc(C)n(-c5cc(NS(C)(=O)=O)ccc5C)c4C)nc23)C1` [Example 50, N-(3-(3-(7-(((S)-1-(ethylsulfonyl)pyrrolidine-3-yl)amino)-3H-imidazo[4,5-b]pyridine-2-yl)-2,5-dimethyl-1H-pyrrol-1-yl)-4-methylphenyl) methanesulfonamide]: the IC50 on MLK3 and against MLK1 was greater than 30000 nM throughout.

Turning to `CCN(CC)CCNC(=O)c1cccc(-n2c(C)cc(-c3nc4ncc(Br)c(N[C@H]5CCN(S(=O)(=O)CC)C5)c4[nH]3)c2C)c1` [Example 56, (S)-3-(3-(6-bromo-7-((1-(ethylsulfonyl)pyrrolidine-3-yl)amino)-1H-imidazo[4,5-b]pyridine-2-yl)-2,5-dimethyl-1H-pyrrol-1-yl)-N-(2-(diethylamino)ethyl)benzamide], the inhibition at 10 µM is greater than 50% in assay [1] (setting [11]); greater than 50% in assay [2] (setting [9]); greater than 50% in assay [3] (setting [12]); greater than 50% in assay [4] (setting [10]); greater than 50% in assay [5] (10 μM, 72 hours, CCK-8). In addition, the IC50 at MLK3 amounted to 122 nM.

Consider `CCS(=O)(=O)N1CC[C@H](Nc2c(Br)cnc3nc(-c4cc(C)n(-c5cc(NC(=O)CCN(C)C)ccc5C)c4C)[nH]c23)C1` [Example 80], for which the inhibition at 10 µM in assay [1] (setting [11]) was greater than 50%; in assay [2] (setting [9]), greater than 50%; in assay [3] (setting [12]) it was greater than 50%; in assay [4] (setting [10]), greater than 50%; in assay [5] (10 μM, 72 hours, CCK-8) it was greater than 50%.

As to `CCS(=O)(=O)N1CC[C@H](Nc2c(Br)cnc3nc(-c4cc(C)n(-c5cccc(NC(=O)CCN(C)C)c5C)c4C)[nH]c23)C1` [Example 86, N-(3-(3-(6-bromo-7-(((S)-1-(ethylsulfonyl)pyrrolidine-3-yl)amino)-1H-imidazo[4,5-b]pyridine-2-yl)-2,5-dimethyl-1H-pyrrol-1-yl)-2-methylphenyl)-3-(dimethylamino) propanamide], the values for the half-inhibitory concentration (IC50) on MLK3 and at MLK1 were 7 nM and 15 nM, respectively.
